Data set [1] concerns the target T1, hSCN3A sodium channels (Homo sapiens, UniProt Q9NY46).
T1 construct: expressed in transfected cells
In words: hSCN3A electrophysiology, whole-cell patch-clamp or PatchXpress 7000, estimated IC-50 (Table B). The following applies: estimated IC-50; hSCN3A cells, whole-cell patch-clamp or PatchXpress 7000; read-out: SCN3A EIC-50. It is filed as cell-based. The procedure, abridged: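 Stably transfected HEK cells, whole-cell voltage clamp at 22-24° C, manual or PatchXpress 7000. Cells held at empirically determined inactivation V1/2; current evoked by 20 msec step to 0 mV after 8 sec prepulse to V1/2.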

The format of data set [2] is in vivo, rat. The following applies: in contrast to compounds I, II and III. The protocol:
The bioanalysis of plasma samples from rats dosed with LC/MS/MS detection of sulfathiazole as measured against an internal standard. Extraction was performed on-line with a turbulent flow chromatography system (HTLC). The transfer from the HTLC to the analytical HPLC is automatic. The mass spectrometer was operated in API ionization mode with an electrospray interface between the analytical HPLC and the mass spectrometer. Multiple reaction monitoring (mrm) detection was used for each analyte on a triple quadrupole mass spectrometer.
2. Materials • HPLC grade reagents were used such as: • Water (Hydro Services Picosystem water filtration) • Methanol (Fisher Ultima) • Ammonium formate (Sigma), and • Formic acid (Sigma) • Rat plasma • sulfathiazole • internal standard B. Instrument Conditions • Mass spectrometer: • Positive ion, mrm detection at • m/z 256 to m/z 108 for ICA-000024 • m/z 342 to m/z 218 for ICA-18756 (internal standard) • 100 ms Dwell time • Cone voltage, capillary voltage and collision energy were optimized for each compound • Source Temperature: 125 C, Desolvation temperature: 325 C • Cone gas at 73 L/hr, and Desolvation gas at 740 L/hr C. Chromatography Conditions
1. Mobile Phases: • A: 98% water:2% methanol with • 4 mM ammonium formate, 0.1% formic acid • B: 98% methanol:2% water with • 4 mM ammonium formate, 0.1% formic acid
2. HTLC Turbulent Flow Quaternary Pump • Column: Cohesive Cyclone Turbo-Flow • Timetable:
3. Analytical Binary Pump • Column: Phenomenex Synergi Hydro-RP 4u 50 mm×2.1 mm • Timetable:
4. Injection Volume • 20 μL D. Preparation of Standards and Samples
Plasma standards and samples were prepared for injection according to the standard operating procedure, HTLC Plasma Analysis by LC/MS/MS.

Data set [3] addresses Nav1.3 (Homo sapiens, UniProt Q9NY46). The conditions noted are these: read-out: TTX IC-50; cited from earlier work.
Data set [4] addresses Nav1.6 (Homo sapiens, UniProt Q9UQD0). The following applies: read-out: TTX IC-50; cited from earlier work.
Data set [5] concerns the target Nav1.8 (Homo sapiens, UniProt Q9Y5Y9). The conditions noted are these: read-out: TTX IC-50; cited from earlier work.
Data set [6] deals with Nav1.9 (Homo sapiens, UniProt Q9UI33). The conditions noted are these: read-out: TTX IC-50; cited from earlier work.
The target in data set [7] is Nav1.1 (Homo sapiens, UniProt P35498). The conditions noted are these: read-out: TTX IC-50; cited from earlier work.
The target in data set [8] is Nav1.2 (Homo sapiens, UniProt Q99250). The conditions noted are these: read-out: TTX IC-50; cited from earlier work.

T1 sequence (Q9NY46 whole entry): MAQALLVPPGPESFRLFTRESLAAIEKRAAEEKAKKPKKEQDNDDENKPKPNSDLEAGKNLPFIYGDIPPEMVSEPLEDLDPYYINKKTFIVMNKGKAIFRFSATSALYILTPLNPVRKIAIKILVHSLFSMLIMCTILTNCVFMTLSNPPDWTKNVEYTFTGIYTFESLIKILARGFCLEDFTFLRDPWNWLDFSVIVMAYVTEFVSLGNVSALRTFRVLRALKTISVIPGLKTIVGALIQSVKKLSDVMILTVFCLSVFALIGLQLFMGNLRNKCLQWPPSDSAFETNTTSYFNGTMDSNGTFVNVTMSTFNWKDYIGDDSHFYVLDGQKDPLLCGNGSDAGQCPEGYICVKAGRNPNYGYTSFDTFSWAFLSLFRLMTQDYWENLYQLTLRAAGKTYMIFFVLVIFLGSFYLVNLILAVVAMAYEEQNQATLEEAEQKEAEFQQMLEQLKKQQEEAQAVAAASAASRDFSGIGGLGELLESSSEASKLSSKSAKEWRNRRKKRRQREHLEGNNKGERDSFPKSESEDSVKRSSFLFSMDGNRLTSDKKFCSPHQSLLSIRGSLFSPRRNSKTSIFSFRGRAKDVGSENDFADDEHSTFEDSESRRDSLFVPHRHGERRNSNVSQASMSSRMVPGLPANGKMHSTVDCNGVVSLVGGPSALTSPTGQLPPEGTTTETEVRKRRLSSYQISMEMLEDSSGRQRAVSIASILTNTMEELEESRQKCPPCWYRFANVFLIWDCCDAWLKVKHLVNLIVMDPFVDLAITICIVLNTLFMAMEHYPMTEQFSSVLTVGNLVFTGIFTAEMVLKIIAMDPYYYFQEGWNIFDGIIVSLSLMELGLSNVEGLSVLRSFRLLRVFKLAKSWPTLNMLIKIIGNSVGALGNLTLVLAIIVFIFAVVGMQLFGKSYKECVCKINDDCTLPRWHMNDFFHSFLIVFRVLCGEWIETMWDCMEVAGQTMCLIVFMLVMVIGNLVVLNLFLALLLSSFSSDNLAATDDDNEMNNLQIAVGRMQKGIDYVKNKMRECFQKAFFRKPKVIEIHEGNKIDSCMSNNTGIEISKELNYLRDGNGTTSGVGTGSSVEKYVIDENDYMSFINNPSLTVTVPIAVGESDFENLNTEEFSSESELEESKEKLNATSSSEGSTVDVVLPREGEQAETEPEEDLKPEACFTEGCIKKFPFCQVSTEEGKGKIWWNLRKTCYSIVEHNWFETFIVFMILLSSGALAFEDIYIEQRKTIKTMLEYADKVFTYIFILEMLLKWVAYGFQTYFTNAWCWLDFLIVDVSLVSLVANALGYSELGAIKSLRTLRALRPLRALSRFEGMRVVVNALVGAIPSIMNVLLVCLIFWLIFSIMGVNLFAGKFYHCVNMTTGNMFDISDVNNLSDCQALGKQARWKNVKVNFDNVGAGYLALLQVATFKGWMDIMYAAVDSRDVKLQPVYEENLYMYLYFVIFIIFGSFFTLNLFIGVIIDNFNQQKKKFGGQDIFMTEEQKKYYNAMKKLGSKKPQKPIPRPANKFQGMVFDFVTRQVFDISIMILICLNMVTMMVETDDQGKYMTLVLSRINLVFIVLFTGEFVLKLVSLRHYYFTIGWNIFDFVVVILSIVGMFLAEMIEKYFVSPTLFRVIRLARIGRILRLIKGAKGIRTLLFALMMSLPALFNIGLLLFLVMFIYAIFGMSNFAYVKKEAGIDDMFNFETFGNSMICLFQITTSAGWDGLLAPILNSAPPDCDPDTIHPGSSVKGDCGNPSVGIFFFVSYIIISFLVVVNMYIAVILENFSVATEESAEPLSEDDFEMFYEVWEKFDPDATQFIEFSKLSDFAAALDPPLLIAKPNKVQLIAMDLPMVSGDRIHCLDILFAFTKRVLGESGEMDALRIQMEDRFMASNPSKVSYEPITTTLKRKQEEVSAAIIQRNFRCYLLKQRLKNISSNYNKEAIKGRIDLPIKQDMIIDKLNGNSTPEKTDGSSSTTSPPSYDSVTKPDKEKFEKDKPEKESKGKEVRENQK
Chain of Nav1.6 (Q9UQD0 whole entry, looked up): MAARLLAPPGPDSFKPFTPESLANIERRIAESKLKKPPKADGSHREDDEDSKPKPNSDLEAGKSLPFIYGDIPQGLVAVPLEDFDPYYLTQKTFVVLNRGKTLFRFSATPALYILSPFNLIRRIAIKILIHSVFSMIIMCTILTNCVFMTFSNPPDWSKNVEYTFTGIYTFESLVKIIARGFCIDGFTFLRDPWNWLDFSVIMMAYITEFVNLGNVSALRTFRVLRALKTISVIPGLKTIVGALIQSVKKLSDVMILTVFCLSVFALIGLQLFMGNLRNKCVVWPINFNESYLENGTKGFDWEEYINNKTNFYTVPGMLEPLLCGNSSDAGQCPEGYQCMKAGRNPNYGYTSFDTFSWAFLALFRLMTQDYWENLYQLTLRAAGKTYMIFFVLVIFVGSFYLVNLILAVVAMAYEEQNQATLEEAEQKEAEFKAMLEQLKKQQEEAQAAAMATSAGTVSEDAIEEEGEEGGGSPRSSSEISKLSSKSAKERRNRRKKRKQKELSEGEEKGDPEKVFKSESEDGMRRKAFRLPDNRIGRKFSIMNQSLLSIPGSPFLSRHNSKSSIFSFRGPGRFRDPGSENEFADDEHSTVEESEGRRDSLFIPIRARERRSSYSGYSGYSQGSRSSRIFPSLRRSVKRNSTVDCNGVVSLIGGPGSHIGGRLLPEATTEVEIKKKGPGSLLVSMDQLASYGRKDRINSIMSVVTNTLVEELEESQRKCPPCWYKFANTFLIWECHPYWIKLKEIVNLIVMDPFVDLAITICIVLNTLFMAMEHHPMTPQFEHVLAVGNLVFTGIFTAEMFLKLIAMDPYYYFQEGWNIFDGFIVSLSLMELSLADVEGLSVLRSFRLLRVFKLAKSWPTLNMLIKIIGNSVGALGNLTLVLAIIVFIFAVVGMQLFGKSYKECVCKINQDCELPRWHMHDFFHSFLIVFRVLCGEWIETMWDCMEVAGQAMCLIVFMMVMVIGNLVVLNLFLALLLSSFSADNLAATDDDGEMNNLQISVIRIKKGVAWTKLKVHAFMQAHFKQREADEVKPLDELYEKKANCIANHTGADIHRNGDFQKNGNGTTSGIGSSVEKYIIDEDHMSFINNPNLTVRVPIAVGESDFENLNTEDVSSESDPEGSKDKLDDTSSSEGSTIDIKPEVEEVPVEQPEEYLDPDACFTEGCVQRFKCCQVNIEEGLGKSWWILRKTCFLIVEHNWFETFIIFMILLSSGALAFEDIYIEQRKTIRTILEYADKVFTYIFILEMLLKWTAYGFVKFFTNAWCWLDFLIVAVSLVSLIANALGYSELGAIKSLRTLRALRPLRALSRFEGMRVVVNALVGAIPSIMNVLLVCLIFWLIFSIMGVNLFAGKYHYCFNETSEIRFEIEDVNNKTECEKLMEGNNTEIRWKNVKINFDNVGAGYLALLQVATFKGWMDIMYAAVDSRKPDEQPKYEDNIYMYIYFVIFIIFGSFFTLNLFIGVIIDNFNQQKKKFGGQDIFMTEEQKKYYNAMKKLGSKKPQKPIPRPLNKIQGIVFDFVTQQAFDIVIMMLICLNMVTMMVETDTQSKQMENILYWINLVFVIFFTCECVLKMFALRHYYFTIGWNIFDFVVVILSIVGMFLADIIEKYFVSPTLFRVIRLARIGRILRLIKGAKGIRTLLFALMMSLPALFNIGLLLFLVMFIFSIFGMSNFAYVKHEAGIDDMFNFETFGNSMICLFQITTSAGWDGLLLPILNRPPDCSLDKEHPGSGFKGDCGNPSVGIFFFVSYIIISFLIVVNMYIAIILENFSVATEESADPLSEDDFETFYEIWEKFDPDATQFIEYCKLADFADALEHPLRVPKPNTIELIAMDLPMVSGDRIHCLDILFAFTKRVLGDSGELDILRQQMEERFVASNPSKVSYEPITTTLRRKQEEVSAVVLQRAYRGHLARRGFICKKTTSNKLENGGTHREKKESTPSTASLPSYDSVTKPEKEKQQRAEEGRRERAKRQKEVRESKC
Chain of Nav1.3 (Q9NY46 whole entry, looked up): as the sequence (Q9NY46 whole entry) above

On to `CC(C)(C)CCNC(=O)c1ccc(S(=O)(=O)Nc2nccs2)cc1` [Example 418, N-(3,3-dimethylbutyl)-4-[(1,3-thiazol-2-ylamino)sulfonyl]benzamide], for which the IC50 in data set [1] was 2740 nM. Besides, the “metabolism to the aniline containing sulfathiazole” value (shortened to “metabolism”) in data set [2] is on record as “do not metabolize to form the aniline containing sulfathiazole”.

In the case of `O=C(NCCOc1ccc(Cl)cc1)c1ccc(S(=O)(=O)Nc2nccs2)cc1` [Example 186, N-[2-(4-chlorophenoxy)ethyl]-4-[(1,3-thiazol-2-ylamino)sulfonyl]benzamide], in data set [1], the IC50 is 420 nM. For the same molecule, the “metabolism” value in data set [2] is recorded as “do not metabolize to form the aniline containing sulfathiazole”.

On to `O=C(NCc1ccc(Cl)cc1)c1ccc(S(=O)(=O)Nc2nccs2)cc1` [Example 100, N-(4-chlorobenzyl)-4-[(1,3-thiazol-2-ylamino)sulfonyl]benzamide], for which the IC50 in data set [1] was 430 nM. Further, the “metabolism” value in data set [2] is reported as “do not metabolize to form the aniline containing sulfathiazole”.

As for `NC1=N[C@H](O)[C@H]2[C@H]3O[C@]4(O)O[C@@H]([C@@H](O)[C@@]2(N1)[C@@H]4O)[C@]3(O)CO` [TTX, tetrodotoxin], the IC50 in data set [3] was 15 nM; in data set [4], 6 nM; in data set [5], 50000 nM; in data set [6], 1000 nM; in data set [7], 10 nM; in data set [8], 10 nM.
